Results as given in ChEMBL document CHEMBL1201862, “PubChem BioAssay data set” (2004).
Active and inactive are the calls of the source.

Experiments:
Protein RecA = biological target: T1, Protein RecA (Mycobacterium tuberculosis, UniProt P9WHJ3); assay: Fluorescence Cell-Free Homogeneous Dose Retest to Identify Inhibitors of RecA-Intein Splicing Activity. [Related pubchem assays (depositor defined):AID2097, AID2223, AID489010, AID492950]; format: functional
T1 sequence (P9WHJ3 whole entry): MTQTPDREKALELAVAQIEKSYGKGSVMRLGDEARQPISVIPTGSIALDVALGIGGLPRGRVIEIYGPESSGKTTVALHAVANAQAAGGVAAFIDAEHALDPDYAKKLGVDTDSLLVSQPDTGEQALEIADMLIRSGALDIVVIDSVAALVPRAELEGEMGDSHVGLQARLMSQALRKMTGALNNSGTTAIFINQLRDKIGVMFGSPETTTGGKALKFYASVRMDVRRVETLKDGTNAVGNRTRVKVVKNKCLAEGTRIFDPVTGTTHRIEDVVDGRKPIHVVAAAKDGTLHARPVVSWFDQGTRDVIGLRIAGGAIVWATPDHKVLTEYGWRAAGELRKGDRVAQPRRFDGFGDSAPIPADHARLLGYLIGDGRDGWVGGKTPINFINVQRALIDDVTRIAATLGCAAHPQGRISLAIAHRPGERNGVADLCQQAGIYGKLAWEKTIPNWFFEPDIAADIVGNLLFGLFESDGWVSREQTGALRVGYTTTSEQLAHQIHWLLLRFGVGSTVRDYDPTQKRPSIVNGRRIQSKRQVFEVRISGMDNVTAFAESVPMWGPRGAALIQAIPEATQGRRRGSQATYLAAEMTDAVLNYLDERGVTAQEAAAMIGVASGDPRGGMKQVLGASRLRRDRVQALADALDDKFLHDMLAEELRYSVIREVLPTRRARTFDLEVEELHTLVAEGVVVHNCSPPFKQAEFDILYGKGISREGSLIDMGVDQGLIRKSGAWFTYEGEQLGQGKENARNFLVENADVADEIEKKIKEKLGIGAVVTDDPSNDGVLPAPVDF

[1] = microbe, parasite or virus in culture; format: functional; details: Mycobacterium tuberculosis
Vero [2] = assay: cells; format: functional, cell-based; details: Chlorocebus sabaeus
Vero [3] = assay: cells; format: functional; details: Chlorocebus sabaeus
Vero [4] = assay: Vero cell cytotoxicity, cytotoxicity control for flavivirus capping enzyme inhibitors (AID 588742); format: functional; details: Chlorocebus sabaeus
[5] = biological target: T2, Replicative DNA helicase DnaB (Mycobacterium tuberculosis, UniProt P9WMR3); assay: DnaB intein splicing inhibitors, dose response, biochemical, cell-free fluorescence (AID 449749); format: functional
T2 sequence (P9WMR3 whole entry): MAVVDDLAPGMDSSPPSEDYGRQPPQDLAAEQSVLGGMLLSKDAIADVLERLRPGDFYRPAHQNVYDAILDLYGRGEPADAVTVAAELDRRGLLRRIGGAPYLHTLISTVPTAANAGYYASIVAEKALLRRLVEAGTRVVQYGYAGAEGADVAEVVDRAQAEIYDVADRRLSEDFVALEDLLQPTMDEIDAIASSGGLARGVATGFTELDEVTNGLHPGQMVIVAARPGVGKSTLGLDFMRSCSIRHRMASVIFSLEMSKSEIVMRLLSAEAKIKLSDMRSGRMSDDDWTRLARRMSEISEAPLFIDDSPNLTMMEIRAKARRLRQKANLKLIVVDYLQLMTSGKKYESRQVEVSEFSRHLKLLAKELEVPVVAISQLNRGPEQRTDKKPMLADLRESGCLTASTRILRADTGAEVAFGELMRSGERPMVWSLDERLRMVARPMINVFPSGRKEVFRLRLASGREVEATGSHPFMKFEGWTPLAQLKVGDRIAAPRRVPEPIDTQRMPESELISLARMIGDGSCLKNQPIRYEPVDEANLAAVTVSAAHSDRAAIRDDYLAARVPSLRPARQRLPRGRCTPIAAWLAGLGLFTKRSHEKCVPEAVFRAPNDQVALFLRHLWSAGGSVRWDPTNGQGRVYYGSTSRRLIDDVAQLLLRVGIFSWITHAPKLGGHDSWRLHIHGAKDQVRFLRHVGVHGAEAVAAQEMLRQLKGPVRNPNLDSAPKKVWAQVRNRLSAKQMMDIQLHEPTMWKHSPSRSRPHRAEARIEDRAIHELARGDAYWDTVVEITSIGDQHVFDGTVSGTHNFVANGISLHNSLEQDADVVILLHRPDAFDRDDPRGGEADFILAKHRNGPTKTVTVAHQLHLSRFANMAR

[6] = inhibitors of intracellular T. cruzi replication, confirmation, NIH3T3 host cells, beta-gal luminescence (AID 2044); format: functional, cell-based;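 further: intracellular parasites grown in NIH/3T3 mouse fibroblasts as host cells; luminescent beta-galactosidase reporter signal from transgenic T. cruzi replicating inside host cells; inhibitors lower the luminescence signal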
[7] = cytotoxicity in MIN6 insulinoma cells, dose response, cytotoxicity control, cell-based, mouse insulinoma (AID 2122); format: functional;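 further: confirmatory high-throughput counterscreen run to flag cytotoxic compounds; mouse MIN-6 beta cells carrying an insulin promoter eGFP reporter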
[8] = cytotoxicity toward NIH3T3 fibroblasts, dose response, counter-screen, cell-based, ATP luminescence, mouse fibroblasts (AID 2010); format: functional;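 further: cells exposed to compound for about 90 hours before reading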
[9] = insulin promoter down-regulators in MIN6 cells, imaging, high-content screening, mouse beta cells (AID 1628); format: functional
[10] = Luminescence Cell-Based Dose Retest to Confirm Inhibitors of Cancer Stem Cells. [Related pubchem assays (depositor defined):AID2717, AID2721]; format: functional; details: Homo sapiens
[11] = HepG2 cell cytotoxicity, dose response, cytotoxicity control for Shn3 inhibitor project, CellTiter-Glo, cherry-picked (AID 624134); format: functional, cell-based
HEK293 [12] = assay: NOD1 signaling inhibitors, primary screen, cell-based, luminescence, uHTS (AID 1578); format: functional; details: Homo sapiens
HEK293 [13] = assay: cells; format: functional, cell-based; details: Homo sapiens
[14] = Luminescent dose response cell-based high throughput screening assay for inhibitors of the Janus kinase 2 mutant JAK2V617F. [Related pubchem assays: 1446 (Primary screen.), 1521 (Confirmation assay.), 1486 (Counter screen.)]; format: functional
HEK293 [15] = assay: NOD2 signaling inhibitors in MDP-stimulated cells, cell-based, uHTS, luminescence (AID 2001); format: functional; details: Homo sapiens
[16] = control 3'UTR Renilla luciferase suppression, dose response, counter-screen for Shn3 inhibitor project, cell-based, Clone20-Shn3RL, cherry-picked (AID 624133); format: functional
HEK293 [17] = assay: cells; format: functional, cell-based; details: Homo sapiens; remark: listed apart in the source
cells = format: functional
[18] = Vero E6 cell cytotoxicity, dose response, cytotoxicity control for non-replicating M. tuberculosis project, secondary assay (AID 492998); format: functional, VeroE6; details: Vero C1008
Hexokinase HKDC1 = biological target: T3, Hexokinase HKDC1 (Homo sapiens, UniProt Q2TB90); assay: HKDC1 hexokinase inhibitors, dose response, biochemical, W721R variant (AID 504729); format: functional
T3 sequence (Q2TB90 whole entry): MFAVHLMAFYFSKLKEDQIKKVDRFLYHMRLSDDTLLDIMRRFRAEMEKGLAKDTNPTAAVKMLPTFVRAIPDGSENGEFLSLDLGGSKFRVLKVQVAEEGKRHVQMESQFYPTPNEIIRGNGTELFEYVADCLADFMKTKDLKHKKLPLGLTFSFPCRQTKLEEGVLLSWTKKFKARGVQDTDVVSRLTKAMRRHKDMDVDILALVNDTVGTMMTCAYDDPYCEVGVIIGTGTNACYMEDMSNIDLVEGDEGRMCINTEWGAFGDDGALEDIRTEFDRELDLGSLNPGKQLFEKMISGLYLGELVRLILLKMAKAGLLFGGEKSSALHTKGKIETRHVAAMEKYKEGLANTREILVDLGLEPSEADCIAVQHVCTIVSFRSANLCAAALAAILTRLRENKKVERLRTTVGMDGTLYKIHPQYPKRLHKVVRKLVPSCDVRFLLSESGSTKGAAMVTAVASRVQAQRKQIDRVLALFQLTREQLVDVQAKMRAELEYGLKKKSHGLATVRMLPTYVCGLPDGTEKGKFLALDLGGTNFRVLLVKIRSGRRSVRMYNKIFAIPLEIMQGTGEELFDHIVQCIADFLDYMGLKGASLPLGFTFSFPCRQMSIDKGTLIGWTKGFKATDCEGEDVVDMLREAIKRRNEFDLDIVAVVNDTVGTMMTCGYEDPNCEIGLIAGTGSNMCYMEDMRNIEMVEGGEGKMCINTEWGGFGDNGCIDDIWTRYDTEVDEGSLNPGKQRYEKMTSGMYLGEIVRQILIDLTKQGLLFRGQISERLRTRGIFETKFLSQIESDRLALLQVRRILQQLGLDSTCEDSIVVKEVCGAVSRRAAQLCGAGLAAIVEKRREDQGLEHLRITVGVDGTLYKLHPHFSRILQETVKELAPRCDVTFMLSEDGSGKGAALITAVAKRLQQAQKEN

[19] = THP-1 cell cytotoxicity, dose response, cytotoxicity control for non-replicating M. tuberculosis project (AID 489025); format: functional
[20] = Shn3 3'UTR reporter inhibitors, dose response, cell-based, Clone20 osteoblasts, firefly luciferase, cherry-picked (AID 624132); format: functional;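 further: firefly luciferase luminescence from reporter carrying the Shn3 3'UTR in osteoblasts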
[21] = biological target: T4, Sentrin-specific protease 8 (Homo sapiens, UniProt Q96LD8); format: functional
T4 sequence (Q96LD8 whole entry): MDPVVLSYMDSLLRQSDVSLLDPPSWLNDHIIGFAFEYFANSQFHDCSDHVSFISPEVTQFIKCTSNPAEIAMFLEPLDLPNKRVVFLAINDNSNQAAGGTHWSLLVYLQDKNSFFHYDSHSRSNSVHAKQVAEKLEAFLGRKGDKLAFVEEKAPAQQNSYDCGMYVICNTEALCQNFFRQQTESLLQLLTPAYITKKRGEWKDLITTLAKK

[22] = biological target: T4, Sentrin-specific protease 8; format: functional; remark: listed apart in the source
SUMO-activating enzyme [23] = biological target: T5, SUMO-activating enzyme (Homo sapiens, UniProt Q9UBT2); assay: inhibitors of in vitro SUMOylation cascade, primary screen, biochemical, HTRF, uHTS (AID 2006); format: protein-complex assay
[24] = biological target: T6, Type-1 angiotensin II receptor (Homo sapiens, UniProt P30556); assay: AT1 receptor antagonists, dose response, selectivity assay for APJ receptor antagonist project, cell-based, uHTS hits (AID 463214); format: functional;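 further: antagonist potency against angiotensin II stimulated AT1 response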
T6 sequence (P30556 whole entry): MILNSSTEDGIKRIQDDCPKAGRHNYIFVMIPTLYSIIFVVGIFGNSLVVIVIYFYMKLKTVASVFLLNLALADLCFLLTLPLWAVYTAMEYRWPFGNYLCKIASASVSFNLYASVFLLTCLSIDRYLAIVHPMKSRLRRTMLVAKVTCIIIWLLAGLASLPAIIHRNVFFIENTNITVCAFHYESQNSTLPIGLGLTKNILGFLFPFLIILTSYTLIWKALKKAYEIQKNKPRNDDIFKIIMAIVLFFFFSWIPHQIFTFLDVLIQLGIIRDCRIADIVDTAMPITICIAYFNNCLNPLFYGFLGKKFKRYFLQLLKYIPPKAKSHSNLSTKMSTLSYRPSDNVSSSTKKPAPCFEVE

SUMO-activating enzyme [25] = biological target: T5, SUMO-activating enzyme; assay: SUMOylation inhibitor hit validation, confirmation, SUMOylation inhibitor project, biochemical, AlphaScreen (AID 2018); format: functional
[26] = biological target: T7, Mannose-6-phosphate isomerase (Homo sapiens, UniProt P34949); assay: human PMI inhibitors, high substrate, primary screen, biochemical, fluorescence intensity, high mannose 6-phosphate (AID 1220)
T7 sequence (P34949 whole entry): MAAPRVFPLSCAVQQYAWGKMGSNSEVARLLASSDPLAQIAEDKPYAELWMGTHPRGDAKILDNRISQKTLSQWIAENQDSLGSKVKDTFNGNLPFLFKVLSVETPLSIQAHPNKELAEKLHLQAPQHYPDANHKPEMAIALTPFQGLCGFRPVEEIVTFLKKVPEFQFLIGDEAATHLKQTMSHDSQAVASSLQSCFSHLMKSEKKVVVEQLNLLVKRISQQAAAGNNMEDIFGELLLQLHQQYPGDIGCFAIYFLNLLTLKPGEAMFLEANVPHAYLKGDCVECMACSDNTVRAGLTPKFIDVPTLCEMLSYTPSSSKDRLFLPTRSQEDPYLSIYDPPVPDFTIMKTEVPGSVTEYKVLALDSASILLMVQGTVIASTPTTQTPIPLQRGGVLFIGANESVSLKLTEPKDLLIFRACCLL

Beta-galactosidase = Beta-galactosidase (Escherichia coli, UniProt Q8VNN2); assay: PubChem AID 485352; format: functional
Sequence of Beta-galactosidase (Q8VNN2 whole entry): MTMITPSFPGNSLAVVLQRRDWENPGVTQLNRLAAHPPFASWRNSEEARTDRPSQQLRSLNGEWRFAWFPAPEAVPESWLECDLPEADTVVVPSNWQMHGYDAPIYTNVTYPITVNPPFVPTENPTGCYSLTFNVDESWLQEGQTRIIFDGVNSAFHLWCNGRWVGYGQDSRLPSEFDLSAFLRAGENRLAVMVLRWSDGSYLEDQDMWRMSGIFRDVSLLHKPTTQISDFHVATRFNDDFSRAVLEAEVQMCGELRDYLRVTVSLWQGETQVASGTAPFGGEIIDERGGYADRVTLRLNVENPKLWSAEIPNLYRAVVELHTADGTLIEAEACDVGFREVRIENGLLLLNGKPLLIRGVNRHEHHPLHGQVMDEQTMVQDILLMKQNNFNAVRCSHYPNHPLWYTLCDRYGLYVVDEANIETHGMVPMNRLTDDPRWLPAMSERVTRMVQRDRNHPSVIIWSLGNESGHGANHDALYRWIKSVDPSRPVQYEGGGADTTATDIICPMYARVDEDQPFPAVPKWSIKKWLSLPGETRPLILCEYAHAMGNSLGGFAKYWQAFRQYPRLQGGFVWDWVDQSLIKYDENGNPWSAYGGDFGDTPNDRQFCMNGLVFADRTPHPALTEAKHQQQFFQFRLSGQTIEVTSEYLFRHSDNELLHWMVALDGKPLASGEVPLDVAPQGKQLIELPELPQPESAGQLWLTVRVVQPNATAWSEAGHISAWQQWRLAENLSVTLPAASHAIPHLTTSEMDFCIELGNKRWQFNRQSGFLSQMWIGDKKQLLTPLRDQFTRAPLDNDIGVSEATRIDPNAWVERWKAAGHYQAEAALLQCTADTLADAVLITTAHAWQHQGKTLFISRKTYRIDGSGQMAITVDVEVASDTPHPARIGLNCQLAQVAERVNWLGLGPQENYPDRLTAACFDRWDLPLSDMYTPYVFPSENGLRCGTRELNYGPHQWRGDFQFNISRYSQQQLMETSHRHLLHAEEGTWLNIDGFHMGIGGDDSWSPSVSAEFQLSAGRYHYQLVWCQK

T5 sequence (Q9UBE0 whole entry): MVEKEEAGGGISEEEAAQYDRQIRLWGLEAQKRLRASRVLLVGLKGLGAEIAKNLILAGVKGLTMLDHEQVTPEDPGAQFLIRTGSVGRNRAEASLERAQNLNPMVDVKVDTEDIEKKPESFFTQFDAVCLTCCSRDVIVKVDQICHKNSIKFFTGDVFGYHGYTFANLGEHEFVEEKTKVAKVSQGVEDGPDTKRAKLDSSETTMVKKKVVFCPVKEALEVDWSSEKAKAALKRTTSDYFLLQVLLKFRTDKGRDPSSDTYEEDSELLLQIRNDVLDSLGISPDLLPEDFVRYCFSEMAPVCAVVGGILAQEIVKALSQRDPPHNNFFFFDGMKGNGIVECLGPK
T5 sequence (Q9UBT2 whole entry): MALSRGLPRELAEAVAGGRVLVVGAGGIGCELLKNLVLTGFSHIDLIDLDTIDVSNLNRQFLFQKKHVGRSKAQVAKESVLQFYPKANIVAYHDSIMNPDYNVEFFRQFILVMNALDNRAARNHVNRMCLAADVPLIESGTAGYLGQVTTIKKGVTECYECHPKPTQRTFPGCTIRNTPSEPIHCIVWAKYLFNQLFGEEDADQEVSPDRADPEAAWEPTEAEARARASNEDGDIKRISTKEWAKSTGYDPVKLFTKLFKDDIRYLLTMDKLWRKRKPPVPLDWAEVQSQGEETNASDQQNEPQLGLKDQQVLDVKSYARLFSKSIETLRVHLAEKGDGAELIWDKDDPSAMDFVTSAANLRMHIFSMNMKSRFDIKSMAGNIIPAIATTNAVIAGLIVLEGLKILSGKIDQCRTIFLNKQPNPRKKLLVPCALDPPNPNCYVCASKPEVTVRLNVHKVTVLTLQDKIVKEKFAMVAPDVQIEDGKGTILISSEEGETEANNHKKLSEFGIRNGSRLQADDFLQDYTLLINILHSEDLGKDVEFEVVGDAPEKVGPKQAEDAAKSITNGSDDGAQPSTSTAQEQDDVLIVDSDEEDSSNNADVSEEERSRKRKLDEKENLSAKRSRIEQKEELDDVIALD

For `Oc1cc(N=Nc2ccc(Cl)cc2)nc(O)n1`, the EC50 (Protein RecA) was 1.2 µM (active), the CC50 [1] was 8.44 µM (active) and the IC50 (Vero [2]) was 21.9 µM (active). For the same compound, the CC50 (Vero [3]) was > 25 µM (active), the CC50 (Vero [4]) was 14.8 µM (active) and the AC50 [5] was 2.37 µM (active).
With `Cc1ccc(OCC(O)Cn2c(=N)n(CCN3CCCCC3)c3ccccc32)cc1` (configuration not stated) the EC50 [6] was 3.83 µM (active), the CC50 (Vero [3]) was 13.8 µM (active) and the IC50 [7] was 3.24 µM (active). The EC50 [8] was > 60 µM (not active) and the IC50 [9] was 1.28 µM (active).
With `Cc1nc([N+](=O)[O-])c(Br)n1CC(=O)c1ccc2ccccc2c1` the AC50 [10] was 4.44 µM (active), the AC50 [11] was 63.7 µM (active) and the EC50 (HEK293 [12]) was 17.6 µM (active). For the same compound, the CC50 [1] was 16 µM (active), the IC50 (HEK293 [13]) was > 20 µM (inactive) and the IC50 [14] was 1.88 µM (active). The IC50 (HEK293 [15]) was 3.77 µM (active), the AC50 [16] was 3.22 µM (active) and the IC50 (HEK293 [17]) was 3.46 µM (active). For the same compound, the IC50 (cells) was 10.1 µM (active), the CC50 [18] was 16.3 µM (active) and the IC50 (Hexokinase HKDC1) was 20.6 µM (inactive). For the same compound, the CC50 [19] was 17.4 µM (active) and the AC50 [20] was 10.7 µM (active).
In the case of `O=C1Nc2ccc([N+](=O)[O-])cc2C1=Nc1cccc(CO)c1`, the IC50 [21] is reported as 8.6 µM (active), the IC50 [22] is reported as 7.06 µM (active) and the IC50 (SUMO-activating enzyme [23]) is reported as 18.7 µM (active). For the same compound, the IC50 [24] was > 40 µM (not active), the IC50 (SUMO-activating enzyme [25]) was 5.51 µM (active) and the IC50 [26] was 12.4 µM (active). The EC50 (Beta-galactosidase) was > 40 µM (inactive).
